Converted amounts (≈) assume the structure as drawn. Where two headings read alike, the source gives them in different places.
Experiments:
[1] = system: Enterococcus faecalis 2041; assay: MIC, standard agar-dilution assay; type: cell-based
Experimental: (§1) The formula I compounds have in vitro and in vivo activity against Gram-positive pathogenic bacteria. The MIC's were determined using a standard agar-dilution assays.
^c Formerly Streptococcus faecalis 2041

Staphylococcus aureus = assay: In vivo activity, experimentally infected mice (ED50); conditions: Staphylococcus aureus infection; doses administered subcutaneously to mice 1 and 4 hours postinfection
[2] = system: Staphylococcus aureus S13E; type: cell-based
Experimental: as §1

[3] = system: Streptococcus pneumoniae Park 1; type: cell-based
Experimental: as §1

[4] = system: vancomycin-susceptible (Vanco^s) E. faecium and E. faecalis; assay: Susceptibility of vancomycin-susceptible enterococci, agar-dilution MIC; type: cell-based; conditions: n = 34 strains; end points read after 24-hour incubation
Experimental: (§2) End points were read after 24-hour incubation. The ratio was calculated by dividing the mean MIC of the compound against the vancomycin-resistant strains by the mean MIC of the compound against the vancomycin-susceptible strains.

Streptococcus pneumoniae = assay: In vivo activity, experimentally infected mice (ED50); conditions: Streptococcus pneumoniae infection; doses administered subcutaneously to mice 1 and 4 hours postinfection
Enterococcus faecium X66 = assay: MIC, standard agar-dilution assay; type: cell-based
Experimental: as §1
^b Formerly Streptococcus faecium X66

Streptococcus pyogenes = assay: In vivo activity, experimentally infected mice (ED50); conditions: Streptococcus pyogenes infection; doses administered subcutaneously to mice 1 and 4 hours postinfection
Escherichia coli EC14 = assay: MIC, standard agar-dilution assay; type: cell-based
Experimental: as §1

[5] = system: Klebsiella pneumoniae X68; assay: MIC, standard agar-dilution assay; type: cell-based
Experimental: as §1

[6] = system: Staphylococcus epidermidis 222; assay: MIC, standard agar-dilution assay; type: cell-based
Experimental: as §1

Escherichia coli TEM = assay: MIC, standard agar-dilution assay; type: cell-based
Experimental: as §1

[7] = system: Streptococcus pyogenes C203; assay: MIC, standard agar-dilution assay; type: cell-based
Experimental: as §1

[8] = system: Staphylococcus aureus NRRL X1.1; assay: MIC, standard agar-dilution assay; type: cell-based
Experimental: as §1

[9] = system: Klebsiella pneumoniae KAE; assay: MIC, standard agar-dilution assay; type: cell-based
Experimental: as §1

[10] = system: Staphylococcus epidermidis EPI270; assay: MIC, standard agar-dilution assay; type: cell-based
Experimental: as §1

[11] = system: Staphylococcus aureus X400; assay: MIC, standard agar-dilution assay; type: cell-based
Experimental: as §1

[12] = system: Staphylococcus aureus V41; assay: MIC, standard agar-dilution assay; type: cell-based
Experimental: as §1

Escherichia coli N10 = assay: MIC, standard agar-dilution assay; type: cell-based
Experimental: as §1

[13] = system: Haemophilus influenzae 76; assay: MIC, standard agar-dilution assay; type: cell-based
Experimental: as §1

[14] = system: Haemophilus influenzae C.L.; assay: MIC, standard agar-dilution assay; type: cell-based
Experimental: as §1

[15] = system: Klebsiella pneumoniae X26; assay: MIC, standard agar-dilution assay; type: cell-based
Experimental: as §1

[16] = system: vancomycin-resistant (Vanco^r) E. faecium and E. faecalis; assay: Susceptibility of vancomycin-resistant enterococci, agar-dilution MIC; type: cell-based; conditions: for Geometric Mean MIC, Vanco^r Strains: n = 25 strains, end points read after 24-hour incubation
Experimental: as §2

[17] = system: six vancomycin-susceptible strains of staphylococci and enterococci; assay: Effect of human serum on the MIC, serial dilution assay; type: cell-based; conditions: for MIC determined in absence of added serum: absence (-) of human serum; for MIC determined in presence of human serum: broth supplemented with human serum to 40%
Description: Another important property of the formula I compounds is the low binding of the compounds to serum proteins when compared with other glycopeptide antibiotics. […] The ratio of the MIC measured in the presence of added serum to the MIC measured in the absence of added serum ("ratio") is an indication of the degree of serum binding. […] A ratio that is greater than one, for example about ten, indicates the compound has a high degree of serum binding.

| Compound | MIC [1] | ED50 (Staphylococcus aureus) [mg/kg/2] | MIC [3] | Geometric Mean MIC, Vanco^s Strains [4] [µg/mL] | ED50 (Streptococcus pneumoniae) | MIC (Enterococcus faecium X66) | ED50 (Streptococcus pyogenes) | MIC (Escherichia coli EC14) [µg/mL] | MIC [5] [µg/mL] | MIC [6] | MIC (Escherichia coli TEM) [µg/mL] | MIC [7] | MIC [8] | MIC [9] [µg/mL] | MIC [10] | MIC [11] | MIC [12] | MIC (Escherichia coli N10) [µg/mL] | Ratio (mean MIC vancomycin-resistant strains / mean MIC vancomycin-susceptible strains) [16] | Geometric Mean MIC, Vanco^r Strains [16] [µg/mL] | further results |
| --- | --- | --- | --- | --- | --- | --- | --- | --- | --- | --- | --- | --- | --- | --- | --- | --- | --- | --- | --- | --- | --- |
| CCCCCCCCN[C@@]1(C)C[C@H](O[C@H]2[C@H](Oc3c4cc5cc3Oc3ccc(cc3Cl)[C@@H](O)[C@@H](NC(=O)[C@@H](CC(C)C)NC)C(=O)N[C@@H](CC(N)=O)C(=O)N[C@H]5C(=O)N[C@H]3C(=O)N[C@H](C(=O)N[C@H](C(=O)O)c5cc(O)cc(O)c5-c5cc3ccc5O)[C@H](O[C@H]3C[C@](C)(N)[C@@H](O)[C@H](C)O3)c3ccc(cc3)O4)O[C@H](CO)[C@@H](O)[C@@H]2O)O[C@@H](C)[C@@H]1O [Compound 1] | 1 µg/mL (≈ 0.599 µM) | 3.35 | .5 µg/mL (≈ 0.299 µM) | 2.2 | 0.43 mg/kg/2 | 1 µg/mL (≈ 0.599 µM) | 0.43 mg/kg/2 | > 128 | > 128 | 1 µg/mL (≈ 0.599 µM) | > 128 | .25 µg/mL (≈ 0.15 µM) | 1 µg/mL (≈ 0.599 µM) | > 128 | 1 µg/mL (≈ 0.599 µM) | 1 µg/mL (≈ 0.599 µM) | 1 µg/mL (≈ 0.599 µM) | > 128 | 4.9 | 9.7 | MIC [2]: .5 µg/mL (≈ 0.299 µM); MIC [13]: > 128 µg/mL; MIC [14]: > 128 µg/mL; MIC [15]: > 128 µg/mL |
| CN[C@H](CC(C)C)C(=O)N[C@H]1C(=O)N[C@@H](CC(N)=O)C(=O)N[C@H]2C(=O)N[C@H]3C(=O)N[C@H](C(=O)N[C@H](C(=O)O)c4cc(O)cc(O)c4-c4cc3ccc4O)[C@H](O[C@H]3C[C@](C)(N)[C@@H](O)[C@H](C)O3)c3ccc(c(Cl)c3)Oc3cc2cc(c3O[C@@H]2O[C@H](CO)[C@@H](O)[C@H](O)[C@H]2O[C@H]2C[C@](C)(NCCc3ccccc3)[C@@H](O)[C@H](C)O2)Oc2ccc(cc2Cl)[C@H]1O [Compound 43] | .5 µg/mL (≈ 0.295 µM) | 0.125 | .125 µg/mL (≈ 0.0737 µM) | 0.77 | 0.11 mg/kg/2 | 1 µg/mL (≈ 0.589 µM) | 0.38 mg/kg/2 | > 128 | > 128 | .25 µg/mL (≈ 0.147 µM) | > 128 | .5 µg/mL (≈ 0.295 µM) | .25 µg/mL (≈ 0.147 µM) | > 128 | 1 µg/mL (≈ 0.589 µM) | 1 µg/mL (≈ 0.589 µM) | .5 µg/mL (≈ 0.295 µM) | > 128 | 5.2 | 4.0 | MIC [2]: 1 µg/mL (≈ 0.589 µM); MIC [13]: > 128 µg/mL; MIC [14]: > 128 µg/mL; MIC [15]: > 128 µg/mL |
| CNC(CC(C)C)C(=O)NC1C(=O)NC(CC(N)=O)C(=O)NC2C(=O)NC3C(=O)NC(C(=O)NC(C(=O)O)c4cc(O)cc(O)c4-c4cc3ccc4O)C(OC3CC(C)(N)C(O)C(C)O3)c3ccc(c(Cl)c3)Oc3cc2cc(c3OC2OC(CO)C(O)C(O)C2OC2CC(C)(NCC(c3ccccc3)c3ccccc3)C(O)C(C)O2)Oc2ccc(cc2Cl)C1O (centres unmarked) [Compound 45] | .5 µg/mL (≈ 0.282 µM) | 0.77 | .25 µg/mL (≈ 0.141 µM) | 1.7 | 0.1 mg/kg/2 | .5 µg/mL (≈ 0.282 µM) | 0.1 mg/kg/2 | > 128 | > 128 | .5 µg/mL (≈ 0.282 µM) | > 128 | .125 µg/mL (≈ 0.0705 µM) | .25 µg/mL (≈ 0.141 µM) | > 128 | 1 µg/mL (≈ 0.564 µM) | .5 µg/mL (≈ 0.282 µM) | .5 µg/mL (≈ 0.282 µM) | > 128 | 5.5 | 9.4 | MIC [2]: .5 µg/mL (≈ 0.282 µM); MIC [13]: > 128 µg/mL; MIC [14]: > 128 µg/mL; MIC [15]: > 128 µg/mL |
| CCN(CC)c1ccc(CNC2(C)CC(OC3C(Oc4c5cc6cc4Oc4ccc(cc4Cl)C(OC4CC(C)(N)C(O)C(C)O4)C4NC(=O)C(NC(=O)C6NC(=O)C(CC(N)=O)NC(=O)C(NC(=O)C(CC(C)C)NC)C(O)c6ccc(c(Cl)c6)O5)c5ccc(O)c(c5)-c5c(O)cc(O)cc5C(C(=O)O)NC4=O)OC(CO)C(O)C3O)OC(C)C2O)cc1 (centres unmarked) [Compound 56] | .5 µg/mL (≈ 0.285 µM) | 0.65 | .5 µg/mL (≈ 0.285 µM) | 0.73 | .09 mg/kg/2 | 1 µg/mL (≈ 0.57 µM) | .06 mg/kg/2 | > 128 | > 128 | .5 µg/mL (≈ 0.285 µM) | > 128 | .5 µg/mL (≈ 0.285 µM) | .5 µg/mL (≈ 0.285 µM) | > 128 | 2 µg/mL (≈ 1.14 µM) | 1 µg/mL (≈ 0.57 µM) | .5 µg/mL (≈ 0.285 µM) | > 128 | 7.0 | 5.1 | MIC [2]: 1 µg/mL (≈ 0.57 µM); MIC [13]: > 128 µg/mL; MIC [14]: > 128 µg/mL; MIC [15]: > 128 µg/mL |
| CNC(CC(C)C)C(=O)NC1C(=O)NC(CC(N)=O)C(=O)NC2C(=O)NC3C(=O)NC(C(=O)NC(C(=O)O)c4cc(O)cc(O)c4-c4cc3ccc4O)C(OC3CC(C)(N)C(O)C(C)O3)c3ccc(c(Cl)c3)Oc3cc2cc(c3OC2OC(CO)C(O)C(O)C2OC2CC(C)(NCc3ccc(Cl)cc3)C(O)C(C)O2)Oc2ccc(cc2Cl)C1O (centres unmarked) [Compound 60] | .25 µg/mL (≈ 0.146 µM) | 0.25 | .06 µg/mL (≈ 0.0349 µM) | 0.65 | 0.08 mg/kg/2 | .25 µg/mL (≈ 0.146 µM) | 0.06 mg/kg/2 | > 128 | > 128 | .25 µg/mL (≈ 0.146 µM) | > 128 | .06 µg/mL (≈ 0.0349 µM) | .125 µg/mL (≈ 0.0728 µM) | > 128 | .5 µg/mL (≈ 0.291 µM) | .5 µg/mL (≈ 0.291 µM) | .25 µg/mL (≈ 0.146 µM) | > 128 | 5.5 | 3.6 | MIC determined in absence of added serum [17]: 0.76; ratio of the MIC in the presence of added serum to the MIC in the absence of added serum ([17]; indication of the degree of serum binding): 2.0; MIC determined in presence of human serum [17]: 1.5; MIC [13]: > 128 µg/mL; MIC [14]: > 128 µg/mL; MIC [15]: > 128 µg/mL |
| CN[C@H](CC(C)C)C(=O)N[C@H]1C(=O)N[C@@H](CC(N)=O)C(=O)N[C@H]2C(=O)N[C@H]3C(=O)N[C@H](C(=O)N[C@H](C(=O)O)c4cc(O)cc(O)c4-c4cc3ccc4O)[C@H](O[C@H]3C[C@](C)(N)[C@@H](O)[C@H](C)O3)c3ccc(c(Cl)c3)Oc3cc2cc(c3O[C@@H]2O[C@H](CO)[C@@H](O)[C@H](O)[C@H]2O[C@H]2C[C@](C)(N)[C@@H](O)[C@H](C)O2)Oc2ccc(cc2Cl)[C@H]1O [Compound A82846B, A82846B, reference compound] | – | – | – | 0.51 | – | – | – | – | – | – | – | – | – | – | – | – | – | – | 18.4 | 9.4 | ratio of the MIC in the presence of added serum to the MIC in the absence of added serum [17]: 1.5; MIC determined in absence of added serum [17]: 0.5; MIC determined in presence of human serum [17]: 0.75 |
